ChEMBL document CHEMBL1145366, “A new class of histamine H3 receptor antagonists derived from ligand based design” (Bioorg Med Chem Lett, 2007)

Legend:
Histamine H3 receptor [1] = target: T1, Histamine H3 receptor (Homo sapiens, UniProt Q9Y5N1); experiment: Displacement of [3H](R)-alpha-methylhistamine from human histamine H3 receptor at 10 uM
Histamine H3 receptor [2] = target: T1, Histamine H3 receptor; experiment: Binding affinity to human histamine H3 receptor
[3] = target: Histamine H1 receptor (Homo sapiens) (UniProt P35367); experiment: Displacement of [3H]pyrilamine from human histamine H1 receptor at 10 uM
[4] = target: Histamine H2 receptor (Homo sapiens) (UniProt P25021); experiment: Displacement of [3H]tiotidine from human histamine H2 receptor at 10 uM
Histamine H3 receptor [5] = target: T1, Histamine H3 receptor; experiment: Inverse agonist activity at human histamine H3 receptor by GTP gammaS assay; type: functional
Histamine H3 receptor [6] = target: Histamine H3 receptor (Rattus norvegicus, UniProt Q9QYN8); experiment: Binding affinity to rat histamine H3 receptor
Histamine H3 receptor (Rattus norvegicus, UniProt Q9QYN8), sequence (Q9QYN8 whole entry): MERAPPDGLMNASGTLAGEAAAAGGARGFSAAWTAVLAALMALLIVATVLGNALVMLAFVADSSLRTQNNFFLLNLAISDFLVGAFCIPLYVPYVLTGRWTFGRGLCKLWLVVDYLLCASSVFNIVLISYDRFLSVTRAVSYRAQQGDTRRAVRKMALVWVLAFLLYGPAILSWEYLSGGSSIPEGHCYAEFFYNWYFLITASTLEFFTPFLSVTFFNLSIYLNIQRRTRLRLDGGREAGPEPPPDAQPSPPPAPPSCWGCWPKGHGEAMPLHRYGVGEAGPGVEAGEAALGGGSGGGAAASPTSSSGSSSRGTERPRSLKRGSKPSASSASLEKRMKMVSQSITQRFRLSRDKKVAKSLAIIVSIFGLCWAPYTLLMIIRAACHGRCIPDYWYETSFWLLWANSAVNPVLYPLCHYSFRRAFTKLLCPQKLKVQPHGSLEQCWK

Histamine H1 receptor (Homo sapiens), sequence (P35367 whole entry): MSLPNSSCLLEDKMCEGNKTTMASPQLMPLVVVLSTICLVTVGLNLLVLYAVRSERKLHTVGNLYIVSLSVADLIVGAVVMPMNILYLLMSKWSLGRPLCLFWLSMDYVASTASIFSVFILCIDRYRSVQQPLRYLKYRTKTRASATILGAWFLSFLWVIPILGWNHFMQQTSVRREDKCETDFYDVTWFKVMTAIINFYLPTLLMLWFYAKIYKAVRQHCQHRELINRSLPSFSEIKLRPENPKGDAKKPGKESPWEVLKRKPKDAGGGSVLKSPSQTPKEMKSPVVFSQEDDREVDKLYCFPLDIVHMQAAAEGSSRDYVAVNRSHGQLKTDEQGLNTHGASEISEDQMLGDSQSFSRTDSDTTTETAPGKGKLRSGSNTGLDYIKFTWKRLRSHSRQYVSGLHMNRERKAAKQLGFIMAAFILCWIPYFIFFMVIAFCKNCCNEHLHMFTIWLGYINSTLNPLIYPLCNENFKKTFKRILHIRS
T1 sequence (Q9Y5N1 whole entry): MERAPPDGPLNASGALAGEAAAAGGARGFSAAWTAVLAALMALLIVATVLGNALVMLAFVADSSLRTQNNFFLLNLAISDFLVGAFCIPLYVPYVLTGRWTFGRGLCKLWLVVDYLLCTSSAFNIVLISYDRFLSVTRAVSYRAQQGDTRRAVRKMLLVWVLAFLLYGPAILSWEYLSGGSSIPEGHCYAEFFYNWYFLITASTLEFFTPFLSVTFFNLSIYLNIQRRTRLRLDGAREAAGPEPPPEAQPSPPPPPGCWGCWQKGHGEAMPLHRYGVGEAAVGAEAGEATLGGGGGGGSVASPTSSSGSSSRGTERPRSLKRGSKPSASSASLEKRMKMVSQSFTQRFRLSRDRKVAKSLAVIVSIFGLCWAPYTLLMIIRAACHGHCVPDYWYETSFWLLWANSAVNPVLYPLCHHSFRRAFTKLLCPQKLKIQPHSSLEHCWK
Histamine H2 receptor (Homo sapiens), sequence (P25021 whole entry): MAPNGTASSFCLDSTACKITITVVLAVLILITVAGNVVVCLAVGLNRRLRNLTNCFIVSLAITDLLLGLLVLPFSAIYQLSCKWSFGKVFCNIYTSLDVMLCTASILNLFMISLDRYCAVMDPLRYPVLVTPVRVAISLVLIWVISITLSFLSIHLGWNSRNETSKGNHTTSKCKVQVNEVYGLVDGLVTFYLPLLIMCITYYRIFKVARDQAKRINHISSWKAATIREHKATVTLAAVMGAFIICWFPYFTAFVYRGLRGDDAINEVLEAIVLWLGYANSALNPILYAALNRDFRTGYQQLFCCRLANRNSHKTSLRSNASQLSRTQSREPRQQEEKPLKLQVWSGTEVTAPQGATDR

| Compound | Activity (Histamine H3 receptor [1]) [%] | Ki (Histamine H3 receptor [2]) [nM] | also measured |
| --- | --- | --- | --- |
| COC(=O)c1ccc(COc2ccc(Nc3ncnc4ccccc34)c(CN(C)C)c2)cc1 | 31 |  |  |
| CN(C)Cc1cc(O)ccc1Nc1ncnc2ccccc12 | 11.6 |  |  |
| CN(C)C(=O)c1cc(OCCC2CCCN2C)ccc1OCc1ccccc1Cl (stereo unspecified) |  | 1810 |  |
| CN(C)Cc1cc(OCC2CCCN(C)C2)ccc1OCc1ccccc1Cl (stereo unspecified) |  | 150 |  |
| CN(C)C(=O)c1cc(OCc2ccc(F)cc2)ccc1OCc1ccccc1Cl | 33 |  |  |
| CN(C)Cc1cc(OCCCCl)ccc1Nc1ncnc2ccccc12 | 49 |  |  |
| CN(C)C(=O)c1cc(OCCCN2CCOCC2)ccc1OCc1ccccc1Cl |  | 1100 |  |
| CN(C)C(=O)c1cc(OCCCN2CCCCC2)ccc1OCc1ccccc1Cl |  | 47 | Activity [3]: 8% |
| CN(C)C(=O)c1cc(OC2CCCCO2)ccc1OCc1ccccc1Cl (stereo unspecified) | 17 |  |  |
| CN(C)CCCOc1ccc(Nc2ncnc3ccccc23)c(CN(C)C)c1 |  | 18 | Activity [4]: -2%; Activity [3]: -15% |
| CN(C)CCCOc1ccc(OCc2ccccc2Cl)c(CN(C)C)c1 |  | 135 |  |
| CN(C)Cc1cc(OCCCN2CCCCC2)ccc1Nc1ncnc2ccccc12 |  | 0.3 | Activity [4]: 2.4%; Activity [3]: -2.5%; EC50 (Histamine H3 receptor [5]): 0.2 nM; Ki (Histamine H3 receptor [6]): 9.8 nM |
| COc1ccccc1COc1ccc(OCCCN2CCOCC2)cc1C(=O)N(C)C | 73.4 | 1390 |  |
| CCOC(=O)CCCOc1ccc(Nc2ncnc3ccccc23)c(CN(C)C)c1 | 28 |  |  |
| CC(C)N1CCC(Oc2ccc(OCc3ccccc3Cl)c(CN(C)C)c2)C1 (stereo unspecified) |  | 88 |  |
| CN(C)Cc1cc(OCCCN2CCCCC2)ccc1OCc1ccccc1Cl |  | 2.4 |  |
| COc1ccccc1COc1ccc(OCCCN2CCCCC2)cc1C(=O)N(C)C |  | 12 |  |
| CN(C)CCCOc1ccc(Oc2ncnc3ccccc23)c(C(=O)N(C)C)c1 |  | 1020 |  |
